Measured values: US11963527B2, “Compounds, compositions, and methods for altering insect and organism behavior” (BASF Corporation, priority 2013, dated 2024)

Key:
[1] = system: honeybees; test: Honeybee repulsion feeding station experiment, repellent in 50% sucrose solution; type: in vivo; conditions: 2% by weight with 50% sucrose
Experimental: FIG. 1 describes the feeding station arrangement (A and B) for the honeybee repulsion experiments described herein. As set forth in FIG. 1, panel (A) sets forth the bee cage positions on the left portion of panel (A) with the randomized feeding station positions on the right portion of panel (A). Panel (B) sets forth an alignment of the randomized feeding station positions with a distance of two meters between feeding stations. A total of eight feeding stations were evaluated at a ten meter distance in front of the respective bee hives. The feeding stations were placed two meters apart from one another.
Honeybees were trained to deep feeders (eight positions), each containing a 50% sucrose solution for one day. After the honeybees were trained to each feeder, the 50% sucrose feeder at randomized positions 1-8 was replaced with a shallow feeder containing a combination of repelling compounds and a 50% sucrose solution according to Table 5. In accordance with FIGS. 5 and 6, 2% by weight of Camphor oil (T4), Ajowan oil (T5), Camphor powder (T6), Rosemary oil (T7), and 2-Decanone (T8) in combination with a 50% sucrose treatment were added to feeders on day two.
Table 5 describes active agents evaluated for bee repulsion and their randomized feeding station positions. As described in Table 5, T1 (control), T2 (control), T3 (control), T4 (Camphor oil), T5 (Ajowan oil), T6 (Camphor powder), T7 (Rosemary oil), and T8 (2-Decanone).
FIG. 5 evaluates the number of bees visiting a respective feed station over a time interval. FIG. 6 sets forth the mean number of honeybees visiting feeding station over a period of four hours.

[2] = Stability test of Poncho 600 with Eugenol, clothianidin content by HPLC; type: physicochemical; conditions: combined with Eugenol; up to 54° C. for seven days
Experimental: Table 6 describes a stability test with a combination of Eugenol and Poncho evaluated at room temperature, 40° C., and 54° C. at zero time, 3 days, and 7 days as confirmed by high performance liquid chromatography (HPLC).

[3] = Stability test of Poncho 600 with α-terpineol, clothianidin content by HPLC; type: physicochemical; conditions: combined with alpha-terpineol; up to 54° C. for eight days
Experimental: Table 7 describes a stability test with a combination of α-terpineol and Poncho 600 evaluated at room temperature, 40° C., and 54° C. at zero time, 2 days, and 8 days as confirmed by HPLC.

For `CCCCCCCCC(C)=O` [Compound 2-decanone, 2-decanone], the “repellency to honeybees over the full 4 hour assessment period” value ([1]; 4 hours) was “highly repellent”, the “repellency to honeybees at 24 hours” value [1] was “still repellent” and the “repellency to honeybees at 24 hours” value ([1]; listed as 2-Decanone) was “exhibited repellency”.

For `CN/C(=N\[N+](=O)[O-])NCc1cnc(Cl)s1` [clothianidin], the “chemical stability of clothianidin content” value [2] was “exhibited chemical stability” and the “chemical stability of clothianidin content” value [3] was “exhibited chemical stability”.
